Assay results published in publication PMC3673835, “Synthesis and biological evaluation of 1, 3-dihydroxyxanthone mannich base derivatives as anticholinesterase agents” (Chemistry Central Journal, 2013).
Where two headings read alike, the source gives them in different places.

Experiments:
[1] = biological target: Electric-eel AChE (EC 3.1.1.7) (Electrophorus electricus, UniProt O42275); assay: biochemical; details: means ± standard deviation of triplicate independent experiments; substrate acetylthiocholine iodide; 37°C, pH 8.0
Chain of Electric-eel AChE (EC 3.1.1.7) (O42275 24-633): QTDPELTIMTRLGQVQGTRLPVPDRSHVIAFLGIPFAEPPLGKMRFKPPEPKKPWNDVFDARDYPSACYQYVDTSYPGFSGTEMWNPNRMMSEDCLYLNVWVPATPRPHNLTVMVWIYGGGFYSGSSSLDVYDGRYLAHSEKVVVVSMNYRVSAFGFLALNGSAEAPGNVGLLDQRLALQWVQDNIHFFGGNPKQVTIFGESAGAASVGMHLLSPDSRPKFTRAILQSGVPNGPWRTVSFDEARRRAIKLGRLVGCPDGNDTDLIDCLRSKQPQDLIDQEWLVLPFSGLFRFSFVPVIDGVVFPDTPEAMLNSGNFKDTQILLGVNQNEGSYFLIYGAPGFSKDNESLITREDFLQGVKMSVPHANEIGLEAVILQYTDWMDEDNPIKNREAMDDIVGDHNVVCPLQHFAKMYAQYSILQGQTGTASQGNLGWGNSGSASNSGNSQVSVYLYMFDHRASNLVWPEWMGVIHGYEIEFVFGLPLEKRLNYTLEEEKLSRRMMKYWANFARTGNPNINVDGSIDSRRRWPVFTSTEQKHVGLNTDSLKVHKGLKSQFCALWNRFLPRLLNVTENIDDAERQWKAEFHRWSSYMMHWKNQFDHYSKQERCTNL

[2] = biological target: horse-serum BuChE (EC3.1.1.8) (Equus caballus, UniProt P81908); assay: biochemical; format: biochemical; details: for Selectivity for BuChE/AChE: ratio IC50 BuChE / IC50 AChE; for IC50: substrate butyrylthiocholine, 37°C, pH 8.0
Chain of horse-serum BuChE (EC3.1.1.8) (P81908 whole entry): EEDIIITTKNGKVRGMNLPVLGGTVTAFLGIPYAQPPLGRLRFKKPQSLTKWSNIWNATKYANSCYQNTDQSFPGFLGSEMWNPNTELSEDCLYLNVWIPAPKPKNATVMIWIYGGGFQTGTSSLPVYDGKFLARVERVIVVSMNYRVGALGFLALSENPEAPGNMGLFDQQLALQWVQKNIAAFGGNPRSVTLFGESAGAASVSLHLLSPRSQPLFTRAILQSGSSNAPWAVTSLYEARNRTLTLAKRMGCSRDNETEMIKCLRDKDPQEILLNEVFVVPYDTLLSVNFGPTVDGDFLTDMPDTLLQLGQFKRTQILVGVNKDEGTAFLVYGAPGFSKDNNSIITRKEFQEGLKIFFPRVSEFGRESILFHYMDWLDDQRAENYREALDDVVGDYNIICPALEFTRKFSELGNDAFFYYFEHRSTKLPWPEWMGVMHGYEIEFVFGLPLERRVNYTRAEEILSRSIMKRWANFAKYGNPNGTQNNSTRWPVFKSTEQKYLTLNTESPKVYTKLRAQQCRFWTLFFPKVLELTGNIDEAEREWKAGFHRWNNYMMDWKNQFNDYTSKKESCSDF

[3] = biological target: T1, AChE (Electrophorus electricus, UniProt O42275); assay: Enzyme kinetic assay on AChE (Lineweaver-Burk plots); format: biochemical, Electric-eel; details: curves intersect at the secondary quadrant
T1 construct: purchased Sigma
T1 sequence (O42275 24-633): as the sequence (O42275 24-633) above

[4] = biological target: BuChE (Equus caballus, UniProt P81908); format: biochemical; details: Lineweaver-Burk plots, curves intersect at the secondary quadrant
Chain of BuChE (P81908 whole entry): as the sequence (P81908 whole entry) above

[5] = listed as 2-((diethylamino)methyl)-1-hydroxy-3-(3-methylbut-2-enyloxy)-9H-xanthen-9-one

Row | SMILES | IC50 [1] [µM] | Selectivity for BuChE/AChE [2] | IC50 [2] [µM] | Inhibition activity against BuChE at 100 μM [2] | Inhibition mode on AChE [3] | Inhibition mode on AChE [3, 5] | Inhibition mode on BuChE [4] | Inhibition mode on BuChE [4, 5]
1 | C=CCOc1cc2oc3ccccc3c(=O)c2c(O)c1CN1CCCCC1 [3d, 3-allyloxy-1-hydroxy-2-(piperidin-1-ylmethyl)-9H-xanthen-9-one] | 3.7 ± 0.16 | 0.47 | 1.73 ± 0.08 |  |  |  |  | 
2 | O=c1c2ccccc2oc2cc(O)c(CN3CCCCC3)c(O)c12 [1d, 1,3-dihydroxy-2-(piperidin-1-ylmethyl)-9H-xanthen-9-one] | 79.3 ± 5.78 | 0.54 | 43 ± 1.76 |  |  |  |  | 
3 | CC(C)=CCOc1cc2oc3ccccc3c(=O)c2c(O)c1CN(C)C [4a, 2-((dimethylamino)methyl)-1-hydroxy-3-(3-methylbut-2-enyloxy)-9H-xanthen-9-one] | 2.63 ± 0.07 | 0.57 | 1.49 ± 0.03 |  |  |  |  | 
4 | C=CCOc1cc2oc3ccccc3c(=O)c2c(O)c1CN1CCOCC1 [3e, 3-allyloxy-1-hydroxy-2-(morpholinomethyl)-9H-xanthen-9-one] | 74.7 ± 4.07 | >1.34 | > 100 | did not show any inhibition activity |  |  |  | 
5 | C=CCOc1cc2oc3ccccc3c(=O)c2c(O)c1CN(CC)CC [3b, 3-allyloxy-2-((diethylamino)methyl)-1-hydroxy-9H-xanthen-9-one] | 6 ± 0.33 | 0.26 | 1.54 ± 0.14 |  |  |  |  | 
6 | CC(C)=CCOc1cc2oc3ccccc3c(=O)c2c(O)c1CN1CCOCC1 [4e] | 24.2 ± 0.4 | 0.37 | 8.83 ± 0.36 |  |  |  |  | 
7 | COc1cc2oc3ccccc3c(=O)c2c(O)c1CN(C)C [2a, 2-((dimethylamino)methyl)-1-hydroxy-3-methoxy-9H-xanthen-9-one] | 2.34 ± 0.2 | 4.66 | 10.9 ± 0.2 |  |  |  |  | 
8 | O=c1c2ccccc2oc2cc(O)c(CN3CCOCC3)c(O)c12 [1e, 1,3-dihydroxy-2-(morpholinomethyl)-9H-xanthen-9-one] | 95.4 ± 1.7 | >1.05 | > 100 | did not show any inhibition activity |  |  |  | 
9 | C=CCOc1cc2oc3ccccc3c(=O)c2c(O)c1CN(C)C [3a, 3-allyloxy-2-((dimethylamino)methyl)-1-hydroxy-9H-xanthen-9-one] | 5.84 ± 1.19 | 0.80 | 4.66 ± 0.64 |  |  |  |  | 
10 | COc1cc2oc3ccccc3c(=O)c2c(O)c1CN1CCCC1 [2c, 1-hydroxy-3-methoxy-2-(pyrrolidin-1-ylmethyl)-9H-xanthen-9-one] | 4.2 ± 0.29 | 1.72 | 7.21 ± 0.75 |  |  |  |  | 
11 | CC(C)=CCOc1cc2oc3ccccc3c(=O)c2c(O)c1CN1CCCC1 [4c, 1-hydroxy-3-(3-methylbut-2-enyloxy)-2-(pyrrolidin-1-ylmethyl)-9H-xanthen-9-one] | 5.85 ± 0.32 | 0.49 | 2.89 ± 0.07 |  |  |  |  | 
12 | COc1cc2oc3ccccc3c(=O)c2c(O)c1CN1CCCCC1 [2d, 1-hydroxy-3-methoxy-2-(piperidin-1-ylmethyl)-9H-xanthen-9-one] | 7 ± 0.07 | 1.53 | 10.6 ± 0.22 |  |  |  |  | 
13 | CC(C)=CCOc1cc2oc3ccccc3c(=O)c2c(O)c1CN1CCCCC1 [4d, 1-hydroxy-3-(3-methylbut-2-enyloxy)-2-(piperidin-1-ylmethyl)-9H-xanthen-9-one] | 55.3 ± 8.15 | 0.10 | 5.61 ± 0.08 |  |  |  |  | 
14 | COc1cc2oc3ccccc3c(=O)c2c(O)c1CN1CCOCC1 [2e, 1-hydroxy-3-methoxy-2-(morpholinomethyl)-9H-xanthen-9-one] | 7.76 ± 2.36 | >12.89 | > 100 | did not show any inhibition activity |  |  |  | 
15 | C=CCOc1cc2oc3ccccc3c(=O)c2c(O)c1CN1CCCC1 [3c, 3-allyloxy-1-hydroxy-2-(pyrrolidin-1-ylmethyl)-9H-xanthen-9-one] | 4.36 ± 0.58 | 0.70 | 3.05 ± 0.13 |  |  |  |  | 
16 | CCN(CC)Cc1c(OCC=C(C)C)cc2oc3ccccc3c(=O)c2c1O [4b, 2-((diethylamino)methyl)-1-hydroxy-3-(3-methylbut-2-enyloxy)-9H-xanthen-9-one] | 2.61 ± 0.13 | 0.20 | 0.51 ± 0.01 |  | mixed-type inhibition | mixed-type manner | mixed-type inhibition | mixed-type manner
17 | CCN(CC)Cc1c(OC)cc2oc3ccccc3c(=O)c2c1O [2b, 2-((diethylamino)methyl)-1-hydroxy-3-methoxy-9H-xanthen-9-one] | 2.4 ± 0.49 | 2.83 | 6.79 ± 0.56 |  |  |  |  | 
18 | O=c1c2ccccc2oc2cc(O)c(CN3CCCC3)c(O)c12 [1c, 1,3-dihydroxy-2-(pyrrolidin-1-ylmethyl)-9H-xanthen-9-one] | 81.9 ± 2.04 | 0.43 | 35.5 ± 1.68 |  |  |  |  | 
19 | CCN(CC)Cc1c(O)cc2oc3ccccc3c(=O)c2c1O [1b, 2-((diethylamino)methyl)-1,3-dihydroxy-9H-xanthen-9-one] | 73.7 ± 1.36 | 0.50 | 37 ± 0.56 |  |  |  |  | 
20 | CN(C)Cc1c(O)cc2oc3ccccc3c(=O)c2c1O [1a, 2-((dimethylamino)methyl)-1,3-dihydroxy-9H-xanthen-9-one] | 107 ± 5.78 | 0.59 | 62.9 ± 0.84 |  |  |  |  | 
